Broadly, the IC50 is the point on the concentration scale where inhibition reaches its midpoint. By inhibition is commonly meant the change of the read-out against control, counted positive when it falls.

The record followed here is paper PMC5717651, “Biotransformation of labdane and halimane diterpenoids by two filamentous fungi strains” (Royal Society Open Science, 2017).

Assay [1] has as its target T1, human recombinant acetylcholinesterase (Hr-AChE) (Homo sapiens, UniProt P22303).
T1 construct: purchased Sigma-Aldrich C1682
The assay can be described thus: biochemical. Particulars: for inhibition at 100 µM: pH 8, at 100 µM compound, 70 µM acetylcholine, ammonium acetate 15.0 mM, pH 8.0, n = 3, read-out: % inhibition ± s.e.m. ICER-AChEhr; for inhibitory activity on Hr-AChE (in words): authors' verbal rating. The method, then: (§1) Hr-AChE-ICER and Hu-BChE-ICER were prepared by covalent enzyme immobilization onto fused silica capillary tubing (30 cm × 0.375 mm × 100 µm I.D.) according to a previously described procedure. Resulting ICERs were connected to an on-flow LC-IT-MS/MS system (EMU FAPESP—Proc. PROEM 2014/50299-5) as biochromatography columns.
(§2) LC system (Shimadzu, Kyoto, Japan) consisted of two Nexera LC-20ADXR pumps, an SIL 20A auto sampler, with a 50 µl loop, a DGU-20A5 degasser and a CBM-20 interface. LC equipment was connected to an AmaZon Speed Ion Trap Mass Spectrometer equipped with an ESI source, operating in positive ion mode. Data were acquired using software Data Analysis 4.1 (Bruker Daltonics). LC analyses were performed at 25°C. Enzymatic reactions were monitored by direct quantification of choline (Ch, [M + H]^+ m/z 104), the hydrolysis product of ACh.
(§3) Samples were solubilized in methanol to provide a stock solution of 1.00 mM for each compound. Assay samples (100 µl) were prepared using 10 µl of stock solution (100 µM final concentration), 20 µl of acetylcholine solution (70 µM final concentration) and 70 µl of ammonium acetate solution (15.0 mM, pH 8.0). Solutions were prepared in duplicate and 20 µl aliquots were used for injection. Negative (absence of ACh) and positive (presence of ACh and absence of ligand) controls were analysed between each AChEI sample.

Assay [2] deals with T2, human serum butyrylcholinesterase (Hu-BChE) (Homo sapiens, UniProt P06276).
T2 construct: purchased Sigma-Aldrich B4186; host or cells: human serum
The assay can be described thus: On-flow Hu-BChE-ICER-IT-MS/MS screening assay (hydrolysis of acetylcholine, choline quantified). The assay is classed as biochemical. Particulars: for inhibitory activity on Hu-BChE (in words): authors' verbal rating. The method, then:
as §1, §2, §3

Setting [3] is: immobilized Hr-AChE capillary reactor (ICER), read-out: IC50 AChEhr.
[4] abbreviates: at 100 µM compound, 70 µM acetylcholine, ammonium acetate 15.0 mM, pH 8.0, n = 3, read-out: % inhibition ± s.e.m. ICER-BChEhu.

Where two headings read alike, the source gives them in different places.

T1 sequence (P22303 32-614): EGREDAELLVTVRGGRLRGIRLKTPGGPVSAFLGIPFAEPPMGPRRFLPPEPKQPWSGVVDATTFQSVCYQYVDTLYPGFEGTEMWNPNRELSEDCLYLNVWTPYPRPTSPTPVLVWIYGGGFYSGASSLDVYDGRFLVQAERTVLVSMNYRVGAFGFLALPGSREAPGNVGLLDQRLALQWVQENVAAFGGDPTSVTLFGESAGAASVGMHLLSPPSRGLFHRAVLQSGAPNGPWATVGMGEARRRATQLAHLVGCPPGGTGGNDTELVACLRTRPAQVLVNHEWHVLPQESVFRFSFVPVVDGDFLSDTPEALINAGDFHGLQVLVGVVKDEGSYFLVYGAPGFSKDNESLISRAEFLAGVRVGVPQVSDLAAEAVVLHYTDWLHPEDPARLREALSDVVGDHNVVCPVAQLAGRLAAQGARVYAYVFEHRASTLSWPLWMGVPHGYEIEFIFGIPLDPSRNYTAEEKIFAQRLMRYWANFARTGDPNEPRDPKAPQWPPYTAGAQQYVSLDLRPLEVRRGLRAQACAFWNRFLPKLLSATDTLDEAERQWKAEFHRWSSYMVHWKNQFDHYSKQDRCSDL
T2 sequence (P06276 29-602): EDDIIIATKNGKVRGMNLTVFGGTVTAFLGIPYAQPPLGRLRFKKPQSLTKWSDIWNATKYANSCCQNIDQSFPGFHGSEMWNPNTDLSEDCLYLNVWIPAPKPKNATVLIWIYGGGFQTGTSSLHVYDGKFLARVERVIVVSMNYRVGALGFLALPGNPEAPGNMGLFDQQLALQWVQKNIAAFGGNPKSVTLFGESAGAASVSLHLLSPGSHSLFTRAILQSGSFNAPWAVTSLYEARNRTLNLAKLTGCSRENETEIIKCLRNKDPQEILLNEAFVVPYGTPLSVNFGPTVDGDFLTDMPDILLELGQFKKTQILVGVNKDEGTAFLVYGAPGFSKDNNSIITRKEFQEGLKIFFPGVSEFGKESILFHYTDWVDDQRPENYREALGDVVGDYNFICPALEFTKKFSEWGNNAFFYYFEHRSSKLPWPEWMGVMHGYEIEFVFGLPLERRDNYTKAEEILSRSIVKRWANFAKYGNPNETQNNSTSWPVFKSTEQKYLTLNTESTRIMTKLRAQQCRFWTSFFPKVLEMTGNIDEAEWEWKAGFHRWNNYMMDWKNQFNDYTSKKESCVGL

Consider `C/C(=C\C(=O)O)CC[C@H]1[C@](C)(O)[C@H](O)C[C@H]2C(C)(C)CCC[C@@]21C` (relative stereo) [Compound 7, (-)-(5S*, 7R*, 8R*, 9R*, 10S*)-Lab-13-en-7α,8α-diol-15-oic acid], for which the IC50 in assay [1] (setting [3]) is greater than 100 µM. Moreover, the inhibition at 100 µM was found to be 4.71 ± 0.11% in assay [1] and 20.1 ± 1.73% in assay [2] (setting [4]).

For `C/C(=C\C(=O)O)CC[C@@H]1[C@@]2(C)CC[C@H](O)C(C)(C)[C@@H]2CC[C@@]1(C)O` (relative stereo) [Compound 8, (+)-(3S*, 5S*, 8R*, 9R*, 10S*)-Lab-13-en-3β,8α-diol-15-oic acid], in assay [1], the “inhibitory activity on Hr-AChE (in words)” value is listed as “weakly active” and the inhibition at 100 µM is roughly 50%. Besides, in assay [1] (setting [3]), the IC50 turned out to be 95.7 ± 1.7 µM. Besides, in assay [2] (setting [4]), the inhibition at 100 µM was determined as 13.3 ± 2.62%.

Take `C/C(=C\C(=O)O)CC[C@]1(C)C2=CCC[C@@](C)(CO)[C@H]2CC[C@H]1C` [Compound 1, (+)-(4R, 5S, 8R, 9S)-18-Hydroxy-ent-halima-1(10),13-(E)-dien-15-oic acid]: in assay [1], the “inhibitory activity on Hr-AChE (in words)” value is given as “weak inhibitory activity” and the inhibition at 100 µM stood at 24.96 ± 0.04%. Besides, the half-inhibitory concentration (IC50) in assay [1] (setting [3]) was greater than 100 µM. Moreover, in assay [2] (setting [4]), the inhibition at 100 µM came out at 36.09 ± 0.28%. Further, the “inhibitory activity on Hu-BChE (in words)” value in assay [2] is “weak inhibitory activity”.

As to `C/C(=C\C(=O)O)CC[C@@H]1[C@@]2(C)CCCC(C)(C)[C@@H]2CC[C@@]1(C)O` [Compound 2, (+)-(5S, 8R, 9R, 10S)-Lab-13-en-8α-ol-15-oic acid], in assay [1], the IC50 is greater than 100 µM, the “inhibitory activity on Hr-AChE (in words)” value is reported as “weak inhibitory activity” and the inhibition at 100 µM is 26.5 ± 3.1%. The inhibition at 100 µM in assay [2] (setting [4]) was 13.3 ± 0.39%. Further, in assay [2], the “inhibitory activity on Hu-BChE (in words)” value is recorded as “weak inhibitory activity”.

For `C/C(=C\C(=O)O)CC[C@]1(C)C2=CC(=O)C[C@@](C)(CO)[C@H]2CC[C@H]1C` [Compound 3, (+)-(4R, 5S, 8R, 9S)-2-Oxo-18-hydroxy-ent-halima-1(10),13-(E)-dien-15-oic acid], the IC50 in assay [1] (setting [3]) was greater than 100 µM. Also, the inhibition at 100 µM in assay [1] came out at 30.13 ± 0.3%; in assay [2] (setting [4]), 14.5 ± 2.47%.

Consider `C/C(=C\C(=O)O)CC[C@]1(C)C2=CCCC(CO)(CO)[C@H]2CC[C@H]1C` [Compound 4, (+)-(5S, 8R, 9S)-18,19-Dihydroxy-ent-halima-1(10),13-(E)-dien-15-oic acid], for which, in assay [1] (setting [3]), the concentration for half-maximal inhibition (IC50) was greater than 100 µM. In addition, the inhibition at 100 µM in assay [1] worked out at 39.4 ± 3.86%; in assay [2] (setting [4]), 14.5 ± 2.42%.

`C/C(=C\C(=O)O)CC[C@]1(C)C2=CCC[C@@](C)(C(=O)O)[C@H]2CC[C@H]1C` [Compound 5, (+)-(4R, 5S, 8R, 9S)-18-Carboxy-ent-halima-1(10),13-(E)-dien-15-oic acid]: in assay [1], the “inhibitory activity on Hr-AChE (in words)” value was “inactive” and the inhibition at 100 µM was roughly 50%. In addition, the IC50 in assay [1] (setting [3]) was greater than 100 µM. Moreover, the inhibition at 100 µM in assay [2] (setting [4]) was determined as 8.17 ± 1.32%.

In the case of `C/C(=C\C(=O)O)CC[C@]1(C)C2=CCC[C@@](C)(C=O)[C@H]2CC[C@H]1C` [Compound 6, (+)-(4R, 5S, 8R, 9S)-18-Formyl-ent-halima-1(10),13-(E)-dien-15-oic acid], the IC50 in assay [1] (setting [3]) was greater than 100 µM. The inhibition at 100 µM in assay [1] is 3.23 ± 1.7%; in assay [2] (setting [4]), 25.07 ± 0.14%.

On to `COc1ccc2c3c1O[C@H]1C[C@@H](O)C=C[C@@]31CCN(C)C2` [Gal, Galanthamine, reference compound], for which the inhibition at 100 µM in assay [2] (pH 8, read-out: % inhibition ± s.e.m. ICER-BChEhu) worked out at 75.8 ± 1.74%.
